Source: patent US9255093B2, “Polycyclic HERG activators” (NOVARTIS AG, priority 2014, dated 2016)
Marks after values point to notes of the source that are not given here.

molecular target: hERG (human ether-a-go-go-related gene) potassium channel (Homo sapiens, UniProt Q12809); test: QPatch automated patch-clamp hERG activator 4-concentration EC50 assay; conditions: increase of hERG tail current amplitude at 7 second (TL7); 3.3 uM (footnote *); hERG stably expressed in CHO cells
Sequence (Q12809 whole entry): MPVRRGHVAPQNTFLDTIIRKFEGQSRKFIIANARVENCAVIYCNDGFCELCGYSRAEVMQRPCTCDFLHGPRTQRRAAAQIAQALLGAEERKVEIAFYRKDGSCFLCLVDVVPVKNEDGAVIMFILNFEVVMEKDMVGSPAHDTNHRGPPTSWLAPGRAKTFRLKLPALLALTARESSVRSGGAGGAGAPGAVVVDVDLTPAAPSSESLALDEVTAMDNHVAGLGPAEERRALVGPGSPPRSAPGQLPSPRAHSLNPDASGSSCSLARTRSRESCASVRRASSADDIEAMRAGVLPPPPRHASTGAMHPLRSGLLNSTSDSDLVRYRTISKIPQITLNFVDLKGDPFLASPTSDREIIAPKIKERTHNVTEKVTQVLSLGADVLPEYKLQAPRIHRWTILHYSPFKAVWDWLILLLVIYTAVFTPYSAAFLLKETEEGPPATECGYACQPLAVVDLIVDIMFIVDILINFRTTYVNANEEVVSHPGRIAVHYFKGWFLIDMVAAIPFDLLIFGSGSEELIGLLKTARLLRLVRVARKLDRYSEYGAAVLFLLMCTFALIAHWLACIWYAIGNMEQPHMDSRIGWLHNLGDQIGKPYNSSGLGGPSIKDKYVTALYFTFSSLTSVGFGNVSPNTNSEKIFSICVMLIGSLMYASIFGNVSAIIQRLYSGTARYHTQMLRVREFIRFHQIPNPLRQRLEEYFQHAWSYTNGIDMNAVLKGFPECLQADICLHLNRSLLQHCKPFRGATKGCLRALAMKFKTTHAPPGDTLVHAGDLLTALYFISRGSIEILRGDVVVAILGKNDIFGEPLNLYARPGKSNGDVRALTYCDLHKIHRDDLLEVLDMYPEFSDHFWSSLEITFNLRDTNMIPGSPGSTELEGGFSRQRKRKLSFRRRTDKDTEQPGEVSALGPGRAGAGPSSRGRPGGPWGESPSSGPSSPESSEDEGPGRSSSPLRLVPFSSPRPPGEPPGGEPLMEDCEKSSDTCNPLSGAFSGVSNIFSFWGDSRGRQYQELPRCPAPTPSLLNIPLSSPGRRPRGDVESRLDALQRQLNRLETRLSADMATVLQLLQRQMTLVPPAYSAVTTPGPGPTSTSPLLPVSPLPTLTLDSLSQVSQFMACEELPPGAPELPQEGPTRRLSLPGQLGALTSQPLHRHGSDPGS

| Structure (SMILES) | % change@TL7 (*@3.3 uM) |
| --- | --- |
| Fc1cc2cc(-c3nnn[nH]3)oc2cc1CNc1ccc(C(F)(F)F)c(Br)c1 [Example 177] | 215* % |

same assay, conditions: increase of hERG tail current amplitude at 7 second (TL7); 10 uM; hERG stably expressed in CHO cells

| Structure (SMILES) | % change@TL7@10 uM [%] |
| --- | --- |
| FC(F)(F)Oc1ccc(NCc2ccc3oc(-c4nn[nH]n4)cc3c2)cc1Br [Example 149] | 335 |
| Fc1cc2cc(-c3nnn[nH]3)oc2cc1CNc1ccc(Cl)c(C(F)(F)F)c1 [Example 150] | 218 |
| Fc1c(CNc2cc(C(F)(F)F)c(Br)c(C(F)(F)F)c2)ccc2cc(-c3nnn[nH]3)oc12 [Example 151] | 308 |
| COc1cc2cc(-c3nnn[nH]3)oc2cc1CNc1ccc(OCC(F)(F)F)c(C(F)(F)F)c1 [Example 153] | 381 |
| Fc1c(CNc2ccc(OCC(F)(F)F)c(C(F)(F)F)c2)ccc2cc(-c3nnn[nH]3)oc12 [Example 154] | 325 |
| N#CCOc1ccc(NCc2cc3oc(-c4nnn[nH]4)cc3cc2Br)cc1C(F)(F)F [Example 155] | 370 |
| FC(F)Oc1ccc(NCc2cc3oc(-c4nnn[nH]4)cc3cc2Br)cc1C(F)(F)F [Example 156] | 356 |
| FC(F)COc1ccc(NCc2cc3oc(-c4nnn[nH]4)cc3cc2Cl)cc1C(F)(F)F [Example 157] | 350 |
| Fc1cc2cc(-c3nnn[nH]3)oc2cc1CNc1ccc(C(F)(F)F)c(C(F)(F)F)c1 [Example 158] | 277 |
| Fc1cc2cc(-c3nnn[nH]3)oc2cc1CNc1cc(C(F)(F)F)c(Br)c(C(F)(F)F)c1 [Example 159] | 388 |
| CC(C)c1ccc(NCc2cc3oc(-c4nnn[nH]4)cc3cc2F)cc1Br [Example 160] | 347 |
| CCOc1ccc(NCc2cc3oc(-c4nnn[nH]4)cc3cc2F)cc1C(F)(F)F [Example 161] | 288 |
| Fc1cc2cc(-c3nnn[nH]3)oc2cc1CNc1ccc(OCC(F)F)c(C(F)(F)F)c1 [Example 162] | 372 |
| CC(C)Oc1ccc(NCc2cc3oc(-c4nnn[nH]4)cc3cc2F)cc1C(F)(F)F [Example 163] | 250 |
| FC(F)(F)COc1ccc(NCc2cc3oc(-c4nnn[nH]4)cc3cc2Br)cc1C(F)(F)F [Example 164] | 308 |
| Fc1cc2cc(-c3nnn[nH]3)oc2cc1CNc1ccc(OCC(F)(F)F)c(C(F)(F)F)c1 [Example 168] | 240 |
| Cc1cc2cc(-c3nnn[nH]3)oc2cc1CNc1ccc(OCC(F)(F)F)c(C(F)(F)F)c1 [Example 170] | 299 |
| CC(C)Oc1ccc(NCc2ccc3cc(-c4nnn[nH]4)oc3c2Cl)cc1C(F)(F)F [Example 171] | 291 |
| CCOc1ccc(NCc2ccc3cc(-c4nn[nH]n4)oc3c2)cc1Br [Example 172] | 284 |
| CC(C)Oc1ccc(NCc2cc3oc(-c4nnn[nH]4)cc3cc2Br)cc1C(F)(F)F [Example 173] | 278 |
| COc1ccc(NCc2ccc3cc(-c4nn[nH]n4)oc3c2)cc1Br [Example 174] | 273 |
| Fc1cc2cc(-c3nnn[nH]3)oc2cc1CNc1ccc(F)c(C(F)(F)F)c1 [Example 176] | 120 |
| CCOc1ccc(NCc2cc3oc(-c4nnn[nH]4)cc3cc2Br)cc1C(F)(F)F [Example 178] | 262 |
| Fc1cc2cc(-c3nnn[nH]3)oc2cc1CNc1ccc(Cl)c(Br)c1 [Example 180] | 231 |
| CCc1ccc(NCc2cc3oc(-c4nnn[nH]4)cc3cc2F)cc1Br [Example 181] | 322 |
| Clc1ccc(NCc2ccc3cc(-c4nn[nH]n4)oc3c2)cc1Br [Example 182] | 249 |
| FC(F)(F)COc1ccc(NCc2ccc3cc(-c4nnn[nH]4)oc3c2Cl)cc1C(F)(F)F [Example 187] | 230 |
| Cc1cc2cc(NCc3cc4oc(-c5nnn[nH]5)cc4cc3Cl)cc(Cl)c2o1 [Example 188] | 108 |

| Structure (SMILES) | % change@TL7@10 uM [%] |
| --- | --- |
| FC(F)(F)c1cc(NCc2cc3oc(-c4nnn[nH]4)cc3cc2Cl)cc(C(F)(F)F)c1Br [Example 189] | 350 |
| CCCc1ccc(NCc2cc3oc(-c4nnn[nH]4)cc3cc2F)cc1F [Example 190] | 167 |
| Cc1cc2cc(NCc3ccc4cc(-c5nn[nH]n5)oc4c3)cc(Cl)c2o1 [Example 194] | 205 |
| Cc1cc(NCc2cc3oc(-c4nnn[nH]4)cc3cc2F)cc(C(F)(F)F)c1 [Example 195] | 249 |
| Fc1cc2cc(-c3nnn[nH]3)oc2cc1CNc1ccc(C(F)(F)F)c(Cl)c1 [Example 196] | 169 |
| FC(F)(F)c1ccc(NCc2cc3oc(-c4nnn[nH]4)cc3cc2Cl)cc1Cl [Example 198] | 187 |
| Fc1c(Cl)cc(NCc2cc3oc(-c4nnn[nH]4)cc3cc2Cl)cc1C(F)(F)F [Example 201] | 225 |
| N#Cc1cc(NCc2ccc3cc(-c4nnn[nH]4)oc3c2Cl)ccc1OC(F)F [Example 202] | 174 |
| Fc1cc2cc(-c3nnn[nH]3)oc2cc1CNc1ccc(C(F)(F)F)c(F)c1 [Example 203] | 136 |
| Fc1cc2cc(-c3nnn[nH]3)oc2cc1CNc1ccc(OCC(F)(F)F)c(Cl)c1 [Example 205] | 222 |
| CCOc1ccc(NCc2ccc3cc(-c4nnn[nH]4)oc3c2Cl)cc1C(F)(F)F [Example 206] | 160 |
| CC(C)c1ccc(NCc2cc3oc(-c4nnn[nH]4)cc3cc2Cl)cc1C(F)(F)F [Example 207] | 297 |
| Fc1cc2cc(-c3nnn[nH]3)oc2cc1CNc1ccc(Cl)c(Cl)c1 [Example 208] | 285 |
| Cc1nsc2ccc(NCc3ccc4cc(-c5nn[nH]n5)oc4c3)cc12 [Example 209] | 137 |
| N#CCOc1ccc(NCc2ccc3cc(-c4nnn[nH]4)oc3c2Cl)cc1C(F)(F)F [Example 210] | 134 |
| CCOc1ccc(NCc2cc3oc(-c4nnn[nH]4)cc3cc2F)cc1Cl [Example 211] | 248 |
| FC(F)(F)Oc1cc(Cl)cc(NCc2cc3oc(-c4nnn[nH]4)cc3cc2Cl)c1 [Example 212] | 116 |
| Cc1cc(NCc2cc3oc(-c4nnn[nH]4)cc3cc2Cl)cc(C(F)(F)F)c1 [Example 213] | 144 |
| Fc1cc(NCc2cc3oc(-c4nnn[nH]4)cc3cc2F)ccc1Cl [Example 214] | 138 |
| Fc1ccc(NCc2cc3oc(-c4nnn[nH]4)cc3cc2F)cc1Cl [Example 215] | 132 |
| CC(C)COc1ccc(NCc2ccc3cc(-c4nn[nH]n4)oc3c2)cc1Br [Example 216] | 88 |
| CCOc1ccc(NCc2cc3oc(-c4nnn[nH]4)cc3cc2Cl)cc1Cl [Example 217] | 116 |
| FC1(F)Oc2ccc(NCc3ccc4cc(-c5nn[nH]n5)oc4c3)cc2C(F)(F)O1 [Example 219] | 71 |
| CCCc1c(C)cc(NCc2cc3oc(-c4nnn[nH]4)cc3cc2Cl)cc1Cl [Example 220] | 148 |
| Fc1ccc(NCc2cc3oc(-c4nnn[nH]4)cc3cc2Cl)cc1CC(F)(F)F [Example 221] | 81 |
| O=C(O)c1cc2cc(Cl)c(CNc3ccc(OC(F)F)c(C(F)(F)F)c3)cc2o1 [Example 223] | 176 |
| O=C(O)c1cc2cc(Cl)c(CNc3ccc(OCC(F)(F)F)c(C(F)(F)F)c3)cc2o1 [Example 224] | 222 |
